*1 amine or outer side, *2 acyl side, *3 side chain or, on linkers, in order; H or OH if unused. Where a SMILES comes first, the peptide text is derived from it. Bridges are numbered along the chain shown (N, C = ends). [ ]: non-standard residue; d: D form. The star is where a group is joined. ξ: configuration not given here. hPhe(3-Cl-4-CF3) = N[C@@H](CCc1ccc(C(F)(F)F)c(Cl)c1)C(=O)O; NPrPhe(4-CF3) = CCCN[C@@H](Cc1ccc(C(F)(F)F)cc1)C(=O)O; X48 = C=CCCN([C@@H](Cc1ccc(C)cc1)C(=O)[*:2])[*:1]; X40 = CCCN([C@@H](Cc1ccc(OC)cc1)C(=O)[*:2])[*:1]; X50 = C=CCN([C@@H](Cc1ccc(C)cc1)C(=O)[*:2])[*:1]; NPrPhe(4-Me) = CCCN[C@@H](Cc1ccc(C)cc1)C(=O)O; NMeGly(cPent) = CN[C@H](C(=O)O)C1CCCC1; Aze(3S-Me) = C[C@H]1CN[C@@H]1C(=O)O; NMeAllylGly = C=CC[C@H](NC)C(=O)O; NEtLeu = CCN[C@@H](CC(C)C)C(=O)O; NMeD = CN[C@@H](CC(=O)O)C(=O)O; NMeL = CN[C@@H](CC(C)C)C(=O)O; ξNMeD = CNC(CC(=O)O)C(=O)O; Morpholide = C1CN(*)CCO1; NMeA = CN[C@@H](C)C(=O)O; dNMeA = CN[C@H](C)C(=O)O; Ac5c = NC1(C(=O)O)CCCC1; Aze = O=C(O)[C@@H]1CCN1; ξP = O=C(O)C1CCCN1; NEtG = CCNCC(=O)O; Sar = CNCC(=O)O
Experiments:
[1] = molecular target: GDP-bound NRAS wild-type protein (Homo sapiens, UniProt P01111); test: Binding to NRAS by surface plasmon resonance (SPR), Single Cycle Kinetics; conditions: KD ratio NRAS/KRAS, SPR
GDP-bound NRAS wild-type protein, sequence (P01111 whole entry): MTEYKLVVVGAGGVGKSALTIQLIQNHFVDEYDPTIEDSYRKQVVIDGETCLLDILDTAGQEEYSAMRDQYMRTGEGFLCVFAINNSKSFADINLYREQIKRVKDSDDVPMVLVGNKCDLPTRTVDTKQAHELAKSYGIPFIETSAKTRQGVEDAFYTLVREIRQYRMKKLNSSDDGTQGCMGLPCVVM

[2] = molecular target: GDP-bound HRAS wild-type protein (Homo sapiens, UniProt P01112); test: Binding to HRAS by surface plasmon resonance (SPR), Single Cycle Kinetics; conditions: KD ratio HRAS/KRAS, SPR
GDP-bound HRAS wild-type protein, sequence (P01112 whole entry): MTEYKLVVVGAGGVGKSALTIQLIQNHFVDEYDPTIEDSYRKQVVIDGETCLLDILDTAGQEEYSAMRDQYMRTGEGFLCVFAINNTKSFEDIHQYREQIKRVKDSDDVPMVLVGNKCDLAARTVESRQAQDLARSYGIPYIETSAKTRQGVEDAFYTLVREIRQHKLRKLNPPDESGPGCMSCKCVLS

SMILES | NRAS/KRAS (ratio of KD for GDP-bound NRAS wild-type to KD for KRAS) [1] | HRAS/KRAS (ratio of KD for GDP-bound HRAS wild-type to KD for KRAS) [2]
CCCN1C(=O)CN(C)C(=O)CN(C)C(=O)[C@H]([C@@H](C)CC)NC(=O)[C@H](CC(C)C)N(C)C(=O)C[C@@H](C(=O)N2CCOCC2)N(C)C(=O)[C@H](C2CCCC2)N(C)C(=O)C2(CCCC2)NC(=O)[C@@H]2CCCN2C(=O)[C@H](CCc2ccc(C(F)(F)F)c(Cl)c2)NC(=O)CN(C)C(=O)[C@@H]1Cc1ccc(OC)cc1 [PP0135] ([NMeL]I[Sar][Sar][X40][Sar][hPhe(3-Cl-4-CF3)]P[Ac5c][NMeGly(cPent)][NMeD]-Morpholide; lactam N-11) | B (a compound having 3 or more and less than 10 is denoted as B) | C (A compound having a KD ratio of 0.1 or more and less than 3 is denoted as C)
CCCN1C(=O)[C@@H]2[C@@H](C)CN2C(=O)[C@H](C)N(C)C(=O)[C@H]([C@@H](C)CC)NC(=O)[C@H](CC(C)C)N(C)C(=O)C[C@@H](C(=O)N2CCOCC2)N(C)C(=O)[C@H](C2CCCC2)N(C)C(=O)C2(CCCC2)NC(=O)[C@@H]2CCCN2C(=O)[C@H](CCc2ccc(C(F)(F)F)c(Cl)c2)NC(=O)CN(C)C(=O)[C@@H]1Cc1ccc(C)cc1 [PP0138] ([NMeL]I[NMeA][Aze(3S-Me)][NPrPhe(4-Me)][Sar][hPhe(3-Cl-4-CF3)]P[Ac5c][NMeGly(cPent)][NMeD]-Morpholide; lactam N-11) | C (A compound having a KD ratio of 0.1 or more and less than 3 is denoted as C) | C (A compound having a KD ratio of 0.1 or more and less than 3 is denoted as C)
C=CC[C@H]1C(=O)N(CC=C)[C@@H](Cc2ccc(C)cc2)C(=O)N(C)CC(=O)N[C@@H](CCc2ccc(C(F)(F)F)c(Cl)c2)C(=O)N2CCC[C@H]2C(=O)NC2(CCCC2)C(=O)N(C)[C@@H](C2CCCC2)C(=O)N(C)[C@H](C(=O)N2CCOCC2)CC(=O)N(C)[C@@H](CC(C)C)C(=O)N[C@@H]([C@@H](C)CC)C(=O)N(C)CC(=O)N1C [PP0139] ([NMeL]I[Sar][NMeAllylGly][X50][Sar][hPhe(3-Cl-4-CF3)]P[Ac5c][NMeGly(cPent)][NMeD]-Morpholide; lactam N-11) | C (A compound having a KD ratio of 0.1 or more and less than 3 is denoted as C) | C (A compound having a KD ratio of 0.1 or more and less than 3 is denoted as C)
C=CCCN1C(=O)[C@H](CC=C)N(C)C(=O)CN(C)C(=O)[C@H]([C@@H](C)CC)NC(=O)[C@H](CC(C)C)N(C)C(=O)C[C@@H](C(=O)N2CCOCC2)N(C)C(=O)[C@H](C2CCCC2)N(C)C(=O)C2(CCCC2)NC(=O)[C@@H]2CCCN2C(=O)[C@H](CCc2ccc(C(F)(F)F)c(Cl)c2)NC(=O)CN(C)C(=O)[C@@H]1Cc1ccc(C)cc1 [PP0140] ([NMeL]I[Sar][NMeAllylGly][X48][Sar][hPhe(3-Cl-4-CF3)]P[Ac5c][NMeGly(cPent)][NMeD]-Morpholide; lactam N-11) | C (A compound having a KD ratio of 0.1 or more and less than 3 is denoted as C) | B (a compound having 3 or more and less than 10 is denoted as B)
CCCN1C(=O)[C@@H]2[C@@H](C)CN2C(=O)[C@H](C)N(C)C(=O)[C@H]([C@@H](C)CC)NC(=O)[C@H](CC(C)C)N(C)C(=O)C[C@@H](C(=O)N2CCOCC2)N(C)C(=O)[C@H](C2CCCC2)N(C)C(=O)C2(CCCC2)NC(=O)[C@@H]2CCCN2C(=O)[C@H](CCc2ccc(C(F)(F)F)c(Cl)c2)NC(=O)CN(C)C(=O)[C@@H]1Cc1ccc(C(F)(F)F)cc1 [PP0141] ([NMeL]I[NMeA][Aze(3S-Me)][NPrPhe(4-CF3)][Sar][hPhe(3-Cl-4-CF3)]P[Ac5c][NMeGly(cPent)][NMeD]-Morpholide; lactam N-11) | C (A compound having a KD ratio of 0.1 or more and less than 3 is denoted as C) | B (a compound having 3 or more and less than 10 is denoted as B)
CCCN1C(=O)CN(C)C(=O)CN(C)C(=O)[C@H]([C@@H](C)CC)NC(=O)[C@H](CC(C)C)N(C)C(=O)C[C@@H](C(=O)N2CCOCC2)N(C)C(=O)[C@H](C2CCCC2)N(C)C(=O)C2(CCCC2)NC(=O)CN(CC)C(=O)[C@H](CCc2ccc(C(F)(F)F)c(Cl)c2)NC(=O)CN(C)C(=O)[C@@H]1Cc1ccc(C(F)(F)F)cc1 [PP0144] ([NMeL]I[Sar][Sar][NPrPhe(4-CF3)][Sar][hPhe(3-Cl-4-CF3)][NEtG][Ac5c][NMeGly(cPent)][NMeD]-Morpholide; lactam N-11) | B (a compound having 3 or more and less than 10 is denoted as B) | C (A compound having a KD ratio of 0.1 or more and less than 3 is denoted as C)
CCCN1C(=O)CN(C)C(=O)CN(CC)C(=O)[C@H]([C@@H](C)CC)NC(=O)[C@H](CC(C)C)N(C)C(=O)C[C@@H](C(=O)N2CCOCC2)N(C)C(=O)[C@H](C2CCCC2)N(C)C(=O)C2(CCCC2)NC(=O)[C@@H]2CCCN2C(=O)[C@H](CCc2ccc(C(F)(F)F)c(Cl)c2)NC(=O)CN(C)C(=O)[C@@H]1Cc1ccc(C(F)(F)F)cc1 [PP0145] ([NMeL]I[NEtG][Sar][NPrPhe(4-CF3)][Sar][hPhe(3-Cl-4-CF3)]P[Ac5c][NMeGly(cPent)][NMeD]-Morpholide; lactam N-11) | B (a compound having 3 or more and less than 10 is denoted as B) | B (a compound having 3 or more and less than 10 is denoted as B)
CCCN1C(=O)CN(C)C(=O)CN(C)C(=O)[C@H]([C@@H](C)CC)NC(=O)[C@H](CC(C)C)N(C)C(=O)C[C@@H](C(=O)N2CCOCC2)NC(=O)[C@H](C2CCCC2)N(C)C(=O)C2(CCCC2)NC(=O)[C@@H]2CCCN2C(=O)[C@H](CCc2ccc(C(F)(F)F)c(Cl)c2)NC(=O)CN(C)C(=O)[C@@H]1Cc1ccc(C(F)(F)F)cc1 [PP0146] ([NMeL]I[Sar][Sar][NPrPhe(4-CF3)][Sar][hPhe(3-Cl-4-CF3)]P[Ac5c][NMeGly(cPent)]D-Morpholide; lactam N-11) | B (a compound having 3 or more and less than 10 is denoted as B) | B (a compound having 3 or more and less than 10 is denoted as B)
CCCN1C(=O)CN(C)C(=O)CN(C)C(=O)[C@H]([C@@H](C)CC)NC(=O)[C@H](CC(C)C)N(C)C(=O)C[C@@H](C(=O)N2CCOCC2)N(C)C(=O)[C@H](C2CCCC2)N(C)C(=O)C2(CCCC2)NC(=O)[C@@H]2CCCN2C(=O)[C@H](CCc2ccc(C(F)(F)F)c(Cl)c2)NC(=O)[C@@H](C)N(C)C(=O)[C@@H]1Cc1ccc(C(F)(F)F)cc1 [PP0148] ([NMeL]I[Sar][Sar][NPrPhe(4-CF3)][dNMeA][hPhe(3-Cl-4-CF3)]P[Ac5c][NMeGly(cPent)][NMeD]-Morpholide; lactam N-11) | B (a compound having 3 or more and less than 10 is denoted as B) | B (a compound having 3 or more and less than 10 is denoted as B)
CCCN1C(=O)CN(C)C(=O)CN(C)C(=O)[C@H]([C@@H](C)CC)NC(=O)[C@H](CC(C)C)N(C)C(=O)CC(C(=O)N2CCOCC2)N(C)C(=O)[C@H](C2CCCC2)N(C)C(=O)C2(CCCC2)NC(=O)[C@@H]2CCCN2C(=O)[C@H](CCc2ccc(C(F)(F)F)c(Cl)c2)NC(=O)C2CCCN2C(=O)[C@@H]1Cc1ccc(C(F)(F)F)cc1 (stereo partly drawn) [PP0149] ([NMeL]I[Sar][Sar][NPrPhe(4-CF3)][ξP][hPhe(3-Cl-4-CF3)]P[Ac5c][NMeGly(cPent)][ξNMeD]-Morpholide; lactam N-11) | C (A compound having a KD ratio of 0.1 or more and less than 3 is denoted as C) | B (a compound having 3 or more and less than 10 is denoted as B)
CCCN1C(=O)CN(C)C(=O)CN(C)C(=O)[C@H]([C@@H](C)CC)NC(=O)[C@H](CC(C)C)N(C)C(=O)C[C@@H](C(=O)N2CCOCC2)N(C)C(=O)[C@H](C2CCCC2)N(C)C(=O)[C@@H](C)NC(=O)[C@@H]2CCCN2C(=O)[C@H](CCc2ccc(C(F)(F)F)c(Cl)c2)NC(=O)CN(C)C(=O)[C@@H]1Cc1ccc(C(F)(F)F)cc1 [PP0150] ([NMeL]I[Sar][Sar][NPrPhe(4-CF3)][Sar][hPhe(3-Cl-4-CF3)]P[dA][NMeGly(cPent)][NMeD]-Morpholide; lactam N-11) | B (a compound having 3 or more and less than 10 is denoted as B) | C (A compound having a KD ratio of 0.1 or more and less than 3 is denoted as C)
CCCN1C(=O)[C@@H]2CCN2C(=O)[C@H](C)N(C)C(=O)[C@H]([C@@H](C)CC)NC(=O)[C@H](CC(C)C)N(CC)C(=O)C[C@@H](C(=O)N2CCOCC2)N(C)C(=O)[C@H](C2CCCC2)N(C)C(=O)C2(CCCC2)NC(=O)[C@@H]2CCCN2C(=O)[C@H](CCc2ccc(C(F)(F)F)c(Cl)c2)NC(=O)CN(C)C(=O)[C@@H]1Cc1ccc(C(F)(F)F)cc1 [PP0151] ([NEtLeu]I[NMeA][Aze][NPrPhe(4-CF3)][Sar][hPhe(3-Cl-4-CF3)]P[Ac5c][NMeGly(cPent)][NMeD]-Morpholide; lactam N-11) | C (A compound having a KD ratio of 0.1 or more and less than 3 is denoted as C) | C (A compound having a KD ratio of 0.1 or more and less than 3 is denoted as C)
